Laboratory results: patent US12552760B2, “Compounds for increasing the nicotinamide adenine dinucleotide in a subject and methods of use thereof” (The Board of Trustees of the University of Illinois, priority 2022, dated 2026)
Like-named read-outs stand apart in the source and are kept apart here.

Legend:
[1] = tested on: APPSwe/PSEN1dE9 N2A cells; conditions: 10 mM, 72 h; Long, A. N. et al. 2015; cited from earlier work
Sprague-Dawley rats [2] = conditions: 500 mg/kg (i.p.) 2 h after MCAO for 22 hrs; Koh, P. 2013; cited from earlier work
cultured primary neurons = conditions: 2-4 mM, 6 h; Liu, D. et al. 2013; cited from earlier work
Wistar rats [3] = conditions: 100, 300, 500 mg/kg (i.p.) 8 days; Sidhu, A. et al. 2018; cited from earlier work
3xTgAD mice = conditions: 40 mg/kg/d (p.o.) 8 months; Liu, D. et al. 2013; cited from earlier work
C57BL/6 mice = conditions: 125, 250, 500 mg/kg (i.p.) 1 day (acute), 5 days (sub-acute); Anderson, D. W. et al. 2008; cited from earlier work
HT22 = conditions: 0.1 mM & 1.0 mM, 24 h; Koh, P. 2013; cited from earlier work
[4] = tested on: Brown Norway rats and C57BL/6 mice; conditions: 200-400 mg/kg/d (p.o., rats), 500 mg/kg/d (p.o., mice), various treatment times; Tribble J. R. et al. 2021; cited from earlier work
Wistar rats [5] = conditions: 500 mg/kg/d (i.p.) 10 days; hippocampal slices treated with 10 μM oAβ1-42 for 6 h +/− 1 mM NMN; Wang, X. et al. 2016; cited from earlier work
APPSwe/PSEN1dE9 mice [6] = conditions: 100 mg/kg (s.c.) every other day for 28 days; Yao Z. et al. 2017; cited from earlier work
[7] = tested on: hSOD1^G93A mouse derived astrocytes and motor neurons; conditions: NR or NMN, 5 mM, 24-72 h; Harlan, B. A. et al. 2019; cited from earlier work
CL2355 worms = conditions: 5 mM, 2 nematode generations; Fang, E. F. et al. 2019; cited from earlier work
APPSwe/PSEN1dE9 mice [8] = conditions: 100 mg/kg every other day for 28 days; Long, A. N. et al. 2015; cited from earlier work
Sprague-Dawley rats [9] = conditions: 100 mg/kg (i.p.) every other day for 3 months; Chandrasekaran, K. et al. 2020; cited from earlier work
CD1 mice = conditions: 300 mg/kg 30 minutes post ICH from tail veil for 24 h or 7 days with (300 mg/kg/d); Wei, C. C. et al. 2017; cited from earlier work
NAMPT [10] = biological target: T1, NAMPT (Homo sapiens, UniProt P43490); test: NAMPT coupled enzyme activity assay (HTS coupled three-enzyme assay); format: biochemical; conditions: dose-response (FIG. 1B)
T1 construct: His6 (C); made in house
T1 sequence (P43490 whole entry): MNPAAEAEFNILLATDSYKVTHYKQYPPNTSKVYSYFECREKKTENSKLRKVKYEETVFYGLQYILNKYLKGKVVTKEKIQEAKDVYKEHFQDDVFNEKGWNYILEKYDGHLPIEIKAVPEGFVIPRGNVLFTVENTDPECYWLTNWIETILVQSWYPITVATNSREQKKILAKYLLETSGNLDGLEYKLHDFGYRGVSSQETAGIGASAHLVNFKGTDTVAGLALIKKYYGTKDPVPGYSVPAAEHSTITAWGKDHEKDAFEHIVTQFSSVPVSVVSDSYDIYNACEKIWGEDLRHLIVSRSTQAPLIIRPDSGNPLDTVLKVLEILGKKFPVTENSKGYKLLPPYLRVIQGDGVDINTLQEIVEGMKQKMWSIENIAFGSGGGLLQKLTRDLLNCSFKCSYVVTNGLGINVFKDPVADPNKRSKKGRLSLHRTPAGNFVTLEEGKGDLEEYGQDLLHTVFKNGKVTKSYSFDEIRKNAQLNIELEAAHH
Source text: NAMPT coupled enzyme activity assay. The NAMPT enzyme assay is based on conditions from Burgos and Schramm and adapted to include a cycling reaction to quantitate NAD^+ production colorimetrically^1. The assay follows the NAMPT-catalyzed production of NMN from substrates NAM and PRPP by coupling NMN formation to the NMNAT reaction, which produces NAD^+ from NMN and ATP. The NAD^+ is then cycled by alcohol dehydrogenase (ADH) and diaphorase to continuously produce WST-1 formazan, which can be detected at 450 nm. Assays are performed at 25° C. in clear 384-well plates, with a final assay volume of 30 μL, and contain the following: 50 mM HEPES, pH 7.5, 5 mM MgCl2, 50 mM NaCl, 0.01% Triton-X 100, 2.5 mM ATP, 40 μM PRPP, 1-500 μM NAM, 1.5 μL WST-1 (Roche Cell Proliferation Reagent), 1 U/mL ADH, 0.083 U/mL diaphorase, 1.5% ethanol, 1% DMSO, 30 nM NAMPT, and 7.4 nM purified human NMNAT1. N-terminal His6-NMNAT1 and C-terminal His6-NAMPT were overexpressed and purified by metal chelate affinity chromatography. Following assay assembly, well signals were measured continuously at 450 nm on a Tecan Infinite M200 plate reader for 1 h with intermittent shaking. Slopes of the linear portions of the reaction progress curves were recorded and corrected for background by subtracting the average slope of control wells containing NAMPT inhibitor FK866.
A high-throughput screen (HTS) of 22,000 compounds was performed to identify those that augment NAMPT enzymatic activity^38. Screening used a coupled three-enzyme assay to detect conversion of NAM to NAD^+, as previously described by our group^37. […] We also established assays in which to assess the ability of our compounds to mitigate neuronal oxidative stress.

[11] = tested on: HT-22 mouse hippocampal cell line; test: TNFα-induced ROS in HT-22 cells (MitoSOX); format: cell-based; conditions: screened against 1 μg/mL TNFα (FIG. 2A)
Procedure: Cell Culture and Drug Treatments. HT22 mouse hippocampal neuronal cells (a gift from the Salk Institute) were grown in Dulbecco's modified Eagle's medium (DMEM) containing 10% FBS and 1× Antibiotic-Antimycotic (ABAM). Cells were maintained in a humidified 5% CO2 atmosphere incubator at 37° C., and were passaged when 60-80% confluent (1-2 days) by removing media, rinsing with phosphate buffered saline (PBS), and enzymatically detaching with trypsin solution. New culture dishes were seeded with ¼ to ½ the cells from the previous dish.
All assays were performed using cells with passage number 12-50. The inner 60 wells of black-walled (Corning®3603/3604) 96-well plates were treated with poly D-lysine (30 μL/well) making sure to cover the entire well surface for 15-30 seconds and then washed thoroughly with sterile water (3×−200 μL/well). TNFα stock solutions (10 μg/mL, PBS (0.1% BSA)) were made, aliquoted, and stored at −80° C. Glutamate stock solutions were made fresh immediately before assay. All compound stock solutions (10 mM, DMSO) were made and stored at −20° C.
Cells were plated at a seeding density of 3,000-5,000 cells/well and allowed to incubate overnight. The next day (18-24 hours later) cells were pretreated with N-PAMs, carefully ensuring equivalent vehicle (DMSO/PBS) composition in each well. After 18-24 hours, stressors (glutamate or TNFα) were treated. Live cell count, ROS level, and total cell count were then assessed after another 18-24 hours.
ROS Detection. ROS levels were quantified using MitoSOX Red Mitochondrial Superoxide Indicator (Invitrogen). At treatment endpoint, the cell culture media was removed and replaced with phosphate buffered saline (PBS) containing 1 μM calcein-AM, 5 μM MitoSOX, and 10 μg/mL Hoechst dyes. Cells were incubated for 30-45 minutes and then dye-containing PBS was dumped and replaced with 100 μL/well fresh PBS. The plate was immediately analyzed in the Celigo Imaging Cytometer using the Live-Dead-Total protocol, where MitoSOX was used in place of propidium iodide. The cell counts and fluorescence intensities for living (calcein), MitoSOX-stained, and total (Hoechst) were acquired. MitoSOX average mean fluorescence intensity (“dead” average mean intensity) was used to quantify mitochondrial ROS. All readouts used were transformed into fold-change over vehicle treatment for visualization.
We set out to design assays representing the connection between OS and the multifaceted pathophysiology of aging and ND. We assessed multiple treatments in several cell lines to model OS induced by diverse factors such as neuroinflammatory signaling, neurotransmitter signaling, and direct oxidant species. Assay development highlighted the neuronal HT-22 mouse hippocampal cell line as most robust for these purpose s, and inflammatory cytokine TNFα as being a reliable and disease-relevant method for inducing ROS generation.

NAMPT [12] = biological target: T1, NAMPT; test: NP-A3-B2:NAMPT co-crystal structure (X-ray diffraction); conditions: NP-A3-B2, NAM and NAMPT; 1.3-1.5 Å resolution
Procedure: X-ray diffraction crystallography. Crystals of NAMPT complexed with NAM and N-PAM were grown by hanging drop vapor diffusion at 16° C. Prior to crystallization, 11 mg/mL NAMPT protein was incubated with 10 mM NAM and 1 mM compound for 30 min on ice. Crystals of the complex were grown by mixing 1-2 μL of NAMPT complex with 2 μL of reservoir solution containing 0.1 M Tris-HCl, pH 8, 0.1 M KCl, and 24-28% PEG 2000 MME or 0.1 M Tris-HCl, pH 8.5, 0.2 M NaCl, 20% glycerol and 13-18% PEG 3350. Crystals grew overnight from the PEG 2000 MME conditions and were used to streak seed drops of NAMPT complex equilibrating against the PEG 3350 conditions.
Data collection and structure refinement. The glycerol present in the crystallization solution was sufficient to cryo-protect crystals, which were flash-cooled in liquid nitrogen. Data were collected on a MAR300 detector at 0.979 Å at the Life Sciences Collaborative Access Team beamline 21-ID-F at the Advanced Photon Source, Argonne National Laboratory. Data indexing, integration, and scaling were performed using XDS, and phases were determined by molecular replacement using Molrep and a NAMPT-NAM co-crystal structure (PDB entry: 2E5D) as search model. Rigid body refinement followed by iterative rounds of restrained refinement and model building were performed with Phenix and Coot.

THP-1 human monocytes = test: Measurement of cellular NAD^+ levels in THP-1 cell cultures (NAD/NADH-Glo); format: cell-based; conditions: dose response study, 30 μM (FIG. 1A)
Procedure: Measurement of cellular NAD^+ levels in THP-1 cell cultures. Using FK-866 and NMN as negative and positive controls, respectively, we explored a number of cell lines to select a highly reproducible model system with good dynamic range. We optimized a commercial NAD-glo assay in the THP-1 human leukemic monocyte cell line in 96-well plates, measuring NAD^+ after incubation with test compounds for 24 hours. […] All cells were grown at 37° C., under 5% CO2 in a humidified incubator. Low passage THP-1 cells (37,500 cells/well) were seeded in 96-well plates and incubated at 37° C. and 5% CO2 for 1½ h prior to a 24 h treatment. All compounds were dissolved in DMSO, and final DMSO concentrations never exceeded 1%. The NAD^+ levels in the cells are measured using the NAD^+/NADH-Glo™ assay (Promega). The assays were performed in triplicate for each concentration and the IC50 values were determined from non-linear regression analysis of the dose-response curve generated in GraphPad Prism 9.

Question: For `NC(=O)c1ccc[n+]([C@@H]2O[C@H](COP(=O)([O-])OP(=O)(O)OC[C@H]3O[C@@H](n4cnc5c(N)ncnc54)[C@H](O)[C@@H]3O)[C@@H](O)[C@H]2O)c1` [NAD^+, Nicotinamide adenine dinucleotide], which mitochondrial deficits [1] is on record?
Answer: Reversed

Question: For `NC(=O)c1cccnc1` [NAM, nicotinamide], which Decreased infarct volume (Sprague-Dawley rats [2]) is on record?
Answer: volume by 60%

Question: What about the hippocalcin depletion (Sprague-Dawley rats [2]) of the same compound?
Answer: Prevented

Question: What about the Neuroprotection (cultured primary neurons) of the same compound?
Answer: Neuroprotection

Question: And the Neuroprotection (Wistar rats [3])?
Answer: Neuroprotection

Question: And the motor function (Wistar rats [3])?
Answer: Improved motor

Question: What about the oxidative stress (Wistar rats [3]) of the same compound?
Answer: Prevented

Question: What about the “Aβ and p-Tau” value (3xTgAD mice) of the same compound?
Answer: Decreased Aβ

Question: And the cognitive decline (3xTgAD mice)?
Answer: Ameliorated

Question: What about the “dopamine concentration in both paradigms” value (C57BL/6 mice) of the same compound?
Answer: Recovered

Question: And the Neuroprotection (HT22)?
Answer: Neuroprotection

Question: What about the “hippocalcin (crucial neuronal protein) depletion” value (HT22) of the same compound?
Answer: Prevented

Question: What about the Retinal ganglion neuroprotection [4] of the same compound?
Answer: neuroprotection

Question: What about the metabolic disruption [4] of the same compound?
Answer: Prevented

Question: What about the mitochondrial function [4] of the same compound?
Answer: Improved

Question: Which results are given for `NC(=O)c1ccc[n+]([C@@H]2O[C@H](COP(=O)([O-])O)[C@@H](O)[C@H]2O)c1` [NMN, nicotinamide mononucleotide]?
Answer: LTP (Wistar rats [5]): Improved LTP; NAD^+ and ATP (Wistar rats [5]): · Restored NAD^+; Neuroprotection (Wistar rats [5]): Neuroprotection; oxidative stress (Wistar rats [5]): Attenuated; spatial learning and memory (Wistar rats [5]): Improved spatial; APP processing (APPSwe/PSEN1dE9 mice [6]): Biased APP to α; Aβ aggregation (APPSwe/PSEN1dE9 mice [6]): · Decreased Aβ; cognitive impairments (APPSwe/PSEN1dE9 mice [6]): Prevented; neuroinflammation (APPSwe/PSEN1dE9 mice [6]): Decreased; synaptic loss (APPSwe/PSEN1dE9 mice [6]): Prevented; Nrf2 mediated Antioxidant Response Element activation [7]: Increased Nrf2; cognitive decline and memory impairment (CL2355 worms): Ameliorated; APP levels (APPSwe/PSEN1dE9 mice [8]): Decreased APP; mitochondrial deficits (APPSwe/PSEN1dE9 mice [8]): Reversed; Neuroprotective (Sprague-Dawley rats [9]): Neuroprotective; brain NAD^+, metabolites, and neurotransmitters (Sprague-Dawley rats [9]): Normalized brain; hippocampal CA1 volume (Sprague-Dawley rats [9]): Preserved; memory (Sprague-Dawley rats [9]): Improved memory; mitochondrial function (Sprague-Dawley rats [9]): Improved; Neuroprotective (CD1 mice): Neuroprotective; acute brain injury (CD1 mice): Protected against; motor function recovery over 7 days (CD1 mice): Enhanced motor; oxidative stress and neuroinflammation (CD1 mice): Reduced

Question: Which EC50 (NAMPT [10]; NAMPT activation) does the source give for `COc1ccc(CN(CCC2(C(C)C)CCOC(C)(C)C2)C(=O)c2ccco2)cc1` (centres unmarked) [NP-A3-B2, N-[(4-Methoxyphenyl)methyl]-N-[2-[tetrahydro-2,2-dimethyl-4-(1-methylethyl)-2H-pyran-4-yl]ethyl]-2-furancarboxamide] here?
Answer: 4.05 µM

Question: And the Amax (NAMPT [10])?
Answer: 1.85 fold

Question: And the “effect on ROS levels across tested concentrations” value [11]?
Answer: little effect until 40 μM

Question: What about the “binding mode in co-crystal structure” value (NAMPT [12]) of the same compound?
Answer: allosteric binding of the hit to the NAMPT rear channel

Question: And the “NAD^+ fold over control” value (THP-1 human monocytes)?
Answer: 1.18 fold

Question: And the “increase in NAD^+ over control” value (THP-1 human monocytes)?
Answer: 18%
